These compounds were tested against T1, RORc ligand binding domain (Homo sapiens, UniProt P51449) (assay: In vitro RORc ligand binding assay (25-[3H]hydroxycholesterol displacement, filter binding)).
T1 construct: host or cells: E. coli
T1 sequence (P51449 269-508 limits assumed): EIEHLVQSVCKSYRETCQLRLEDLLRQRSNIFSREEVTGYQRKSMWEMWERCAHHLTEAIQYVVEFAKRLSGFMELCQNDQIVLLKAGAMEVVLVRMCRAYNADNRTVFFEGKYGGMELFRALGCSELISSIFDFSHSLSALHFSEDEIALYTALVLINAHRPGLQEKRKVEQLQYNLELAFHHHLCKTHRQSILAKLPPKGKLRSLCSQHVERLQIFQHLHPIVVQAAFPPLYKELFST

For `CNS(=O)(=O)N1CCC[C@H]([C@@]23CC[C@@H](c4cc(-c5c(F)cccc5F)nnc42)C3(C)C)C1` [Compound 138, 3-[5-(2,6-difluorophenyl)-11,11-dimethyl-3,4-diazatricyclo[6.2.1.02,7]undeca-2,4,6-trien-1-yl]-N-methyl-piperidine-1-sulfonamide], which IC50 is on record?
Its IC50 is 0.012 µM.

How did the IC50 turn out when `CC1(C)[C@H]2CC[C@]1(C1CCC(=O)NC1)c1nnc(-c3c(F)cccc3F)cc12` (some centres unmarked) [Compound 116, 5-[5-(2,6-difluorophenyl)-11,11-dimethyl-3,4-diazatricyclo[6.2.1.02,7]undeca-2,4,6-trien-1-yl]piperidin-2-one] was run?
The IC50 was 0.074 µM.

How did the IC50 turn out when `CC1(C)[C@H]2CC[C@]1([C@H]1CCCN(C(=O)c3c[nH]c(=O)cn3)C1)c1nnc(-c3c(F)cccc3F)cc12` [Compound 121, 5-[3-[5-(2,6-difluorophenyl)-11,11-dimethyl-3,4-diazatricyclo[6.2.1.02,7]undeca-2,4,6-trien-1-yl]piperidine-1-carbonyl]-1H-pyrazin-2-one] was run?
Its IC50 is 0.011 µM.

`CC[C@H](O[C@@]12CC[C@@H](c3cc(-c4c(F)cccc4F)nnc31)C2(C)C)C(=O)NCCS(C)(=O)=O` [Compound 26, (S)-2-(((5S,8R)-3-(2,6-difluorophenyl)-9,9-dimethyl-5,6,7,8-tetrahydro-5,8-methanocinnolin-8-yl)oxy)-N-(2-(methylsulfonyl)ethyl)butanamide] was tested. Which IC50 did it give?
The IC50 was 0.0427 µM.

How did the IC50 turn out when `CC[C@H](O[C@@]12CC[C@@H](c3cc(-c4c(F)cccc4F)nnc31)C2(C)C)C(=O)OC` [Compound 110, methyl (2S)-2-[[(1R,8S)-5-(2,6-difluorophenyl)-11,11-dimethyl-3,4-diazatricyclo[6.2.1.02,7]undeca-2,4,6-trien-1-yl]oxy]butanoate] was run?
Its IC50 is 0.1 µM.

With `CNC(=O)c1nnc([C@@]23CC[C@@H](c4cc(-c5c(F)cccc5F)nnc42)C3(C)C)o1` [Compound 3, 5-((5R,8R)-3-(2,6-difluorophenyl)-9,9-dimethyl-5,6,7,8-tetrahydro-5,8-methanocinnolin-8-yl)-N-methyl-1,3,4-oxadiazole-2-carboxamide] as the compound, how does the IC50 read?
Its IC50 is 0.283 µM.

Which IC50 does the source give for `CC[C@@H](O[C@@]12CC[C@@H](c3cc(-c4c(F)cccc4F)nnc31)C2(C)C)C(=O)NCC1(O)COC1` [Compound 57, (R)-2-(((5S,8R)-3-(2,6-difluorophenyl)-9,9-dimethyl-5,6,7,8-tetrahydro-5,8-methanocinnolin-8-yl)oxy)-N-((3-hydroxyoxetan-3-yl)methyl)butanamide] here?
The IC50 was 0.0445 µM.

How did the IC50 turn out when `Cc1n[nH]c(C(=O)N2CCC[C@H]([C@@]34CC[C@@H](c5cc(-c6c(F)cccc6F)nnc53)C4(C)C)C2)n1` [Compound 129, [3-[5-(2,6-difluorophenyl)-11,11-dimethyl-3,4-diazatricyclo[6.2.1.02,7]undeca-2,4,6-trien-1-yl]-1-piperidyl]-(3-methyl-1H-1,2,4-triazol-5-yl)methanone] was run?
The IC50 was 0.083 µM.

`CN1CCO[C@H]([C@@]23CC[C@@H](c4cc(-c5c(F)cccc5F)nnc42)C3(C)C)C1` [Compound 67, (R)-2-((5R,8R)-3-(2,6-difluorophenyl)-9,9-dimethyl-5,6,7,8-tetrahydro-5,8-methanocinnolin-8-yl)-4-methylmorpholine] was tested. Which IC50 did it give?
The IC50 was 0.215 µM.

With `CC1(C)[C@H]2CC[C@]1(OC(=O)N1CCC1)c1nnc(-c3c(F)cccc3F)cc12` [Compound 10, (5S,8R)-3-(2,6-difluorophenyl)-9,9-dimethyl-5,6,7,8-tetrahydro-5,8-methanocinnolin-8-yl azetidine-1-carboxylate] as the compound, how does the IC50 read?
Its IC50 is 0.353 µM.

For `CC1(C)[C@H]2CC[C@]1([C@H]1CCCN(C(=O)c3cccnn3)C1)c1nnc(-c3c(F)cccc3F)cc12` [Compound 168, [3-[5-(2,6-difluorophenyl)-11,11-dimethyl-3,4-diazatricyclo[6.2.1.02,7]undeca-2,4,6-trien-1-yl]-1-piperidyl]-pyridazin-3-yl-methanone], which IC50 is on record?
Its IC50 is 0.0071 µM.

With `CC1(C)[C@H]2CC[C@]1(Oc1ccccn1)c1nnc(-c3c(F)cccc3F)cc12` [Compound 12, (5S,8R)-3-(2,6-difluorophenyl)-9,9-dimethyl-8-(pyridin-2-yloxy)-5,6,7,8-tetrahydro-5,8-methanocinnoline] as the compound, how does the IC50 read?
The IC50 was 0.0425 µM.

`CC[C@@H](O[C@@]12CC[C@@H](c3cc(-c4c(F)cccc4F)nnc31)C2(C)C)c1nc[nH]n1` [Compound 40, (5S,8R)-8-((R)-1-(1H-1,2,4-triazol-3-yl)propoxy)-3-(2,6-difluorophenyl)-9,9-dimethyl-5,6,7,8-tetrahydro-5,8-methanocinnoline] was tested. Which IC50 did it give?
The IC50 was 0.0501 µM.

With `CC1(C)[C@H]2CC[C@]1([C@H]1CCCN(C(=O)c3cocn3)C1)c1nnc(-c3c(F)cccc3F)cc12` [Compound 122, [3-[5-(2,6-difluorophenyl)-11,11-dimethyl-3,4-diazatricyclo[6.2.1.02,7]undeca-2,4,6-trien-1-yl]-1-piperidyl]-oxazol-4-yl-methanone] as the compound, how does the IC50 read?
The IC50 was 0.021 µM.

Which IC50 does the source give for `CC1(C)[C@H]2CC[C@]1([C@H]1CN(CC(F)F)CCO1)c1nnc(-c3c(F)cccc3F)cc12` [Compound 80, (S)-4-(2,2-difluoroethyl)-2-((5R,8R)-3-(2,6-difluorophenyl)-9,9-dimethyl-5,6,7,8-tetrahydro-5,8-methanocinnolin-8-yl)morpholine] here?
The IC50 was 0.674 µM.

For `CC1(C)C2CCC1(C1CCCN(C(=O)c3cnoc3)C1)c1nnc(-c3c(F)cccc3F)cc12` (centres unmarked) [Compound 160, [3-[5-(2,6-difluorophenyl)-11,11-dimethyl-3,4-diazatricyclo[6.2.1.02,7]undeca-2,4,6-trien-1-yl]-1-piperidyl]-isoxazol-4-yl-methanone], which IC50 is on record?
Its IC50 is 0.2 µM.

`CC1(C)[C@H]2CC[C@]1([C@H]1CCCN(C(=O)NCCO)C1)c1nnc(-c3c(F)cccc3F)cc12` (stereo in doubt) [Compound 152, 3-[5-(2,6-difluorophenyl)-11,11-dimethyl-3,4-diazatricyclo[6.2.1.02,7]undeca-2,4,6-trien-1-yl]-N-(2-hydroxyethyl)piperidine-1-carboxamide] was tested. Which IC50 did it give?
The IC50 was 0.0074 µM.

Which IC50 does the source give for `CC[C@@H](O[C@@]12CC[C@@H](c3cc(-c4c(F)cccc4F)nnc31)C2(C)C)C(=O)N(C)CCOC` [Compound 100, (R)-2-(((5S,8R)-3-(2,6-difluorophenyl)-9,9-dimethyl-5,6,7,8-tetrahydro-5,8-methanocinnolin-8-yl)oxy)-N-(2-methoxyethyl)-N-methylbutanamide] here?
Its IC50 is 0.0464 µM.

How did the IC50 turn out when `CC1(C)[C@H]2CC[C@]1([C@H]1CN(S(C)(=O)=O)CCO1)c1nnc(-c3c(F)cccc3F)cc12` [Compound 73, (S)-2-((5R,8R)-3-(2,6-difluorophenyl)-9,9-dimethyl-5,6,7,8-tetrahydro-5,8-methanocinnolin-8-yl)-4-(methylsulfonyl)morpholine] was run?
The IC50 was 1.03 µM.

Which IC50 does the source give for `CC1(C)[C@H]2CC[C@]1(Oc1cncnc1)c1nnc(-c3c(F)cccc3F)cc12` [Compound 28, (5S,8R)-3-(2,6-difluorophenyl)-9,9-dimethyl-8-(pyrimidin-5-yloxy)-5,6,7,8-tetrahydro-5,8-methanocinnoline] here?
Its IC50 is 0.185 µM.

Which IC50 does the source give for `C[C@@H](O[C@@]12CC[C@@H](c3cc(-c4c(F)cccc4F)nnc31)C2(C)C)C(N)=O` [Compound 42, (R)-2-(((5S,8R)-3-(2,6-difluorophenyl)-9,9-dimethyl-5,6,7,8-tetrahydro-5,8-methanocinnolin-8-yl)oxy)propanamide] here?
Its IC50 is 0.0144 µM.

With `CC1(C)[C@H]2CC[C@]1(OC1(CC(N)=O)CC1)c1nnc(-c3c(F)cccc3F)cc12` [Compound 46, 2-(1-(((5S,8R)-3-(2,6-difluorophenyl)-9,9-dimethyl-5,6,7,8-tetrahydro-5,8-methanocinnolin-8-yl)oxy)cyclopropyl)acetamide] as the compound, how does the IC50 read?
Its IC50 is 0.0748 µM.

For `CC(C)(C)OC(=O)N1CCNC[C@H]1[C@@]12CC[C@@H](c3cc(-c4c(F)cccc4F)nnc31)C2(C)C` [Compound 115, tert-butyl 2-[5-(2,6-difluorophenyl)-11,11-dimethyl-3,4-diazatricyclo[6.2.1.02,7]undeca-2,4,6-trien-1-yl]piperazine-1-carboxylate], which IC50 is on record?
Its IC50 is 0.0031 µM.

How did the IC50 turn out when `CN(C)C(=O)N1CCO[C@H]([C@@]23CC[C@@H](c4cc(-c5c(F)cccc5F)nnc42)C3(C)C)C1` [Compound 88, (R)-2-((5R,8R)-3-(2,6-difluorophenyl)-9,9-dimethyl-5,6,7,8-tetrahydro-5,8-methanocinnolin-8-yl)-N,N-dimethylmorpholine-4-carboxamide] was run?
Its IC50 is 0.369 µM.

With `CN1CCN(C)[C@H]([C@@]23CC[C@@H](c4cc(-c5c(F)cccc5F)nnc42)C3(C)C)C1` [Compound 180, 5-(2,6-difluorophenyl)-1-(1,4-dimethylpiperazin-2-yl)-11,11-dimethyl-3,4-diazatricyclo[6.2.1.02,7]undeca-2,4,6-triene] as the compound, how does the IC50 read?
Its IC50 is 0.016 µM.

How did the IC50 turn out when `CC1(C)[C@H]2CC[C@]1([C@H]1CCCN(C(=O)c3ccno3)C1)c1nnc(-c3c(F)cccc3F)cc12` (stereo in doubt) [Compound 166, [3-[5-(2,6-difluorophenyl)-11,11-dimethyl-3,4-diazatricyclo[6.2.1.02,7]undeca-2,4,6-trien-1-yl]-1-piperidyl]-isoxazol-5-yl-methanone] was run?
Its IC50 is 0.033 µM.

For `CCO[C@@]12CC[C@@H](c3cc(-c4c(F)cccc4F)nnc31)C2(C)C` [Compound 7, (5S,8R)-3-(2,6-difluorophenyl)-8-ethoxy-9,9-dimethyl-5,6,7,8-tetrahydro-5,8-methanocinnoline], which IC50 is on record?
The IC50 was 0.0093 µM.

Which IC50 does the source give for `C[C@H](O)C(=O)N(C)[C@@]12CC[C@@H](c3cc(-c4c(F)cccc4F)nnc31)C2(C)C` [Compound 1, (S)-N-((5R,8R)-3-(2,6-difluorophenyl)-9,9-dimethyl-5,6,7,8-tetrahydro-5,8-methanocinnolin-8-yl)-2-hydroxy-N-methylpropanamide] here?
Its IC50 is 0.92 µM.

Which IC50 does the source give for `CC1(C)[C@H]2CC[C@]1([C@H]1CCCN(C(=O)c3cc[nH]n3)C1)c1nnc(-c3c(F)cccc3F)cc12` [Compound 135, [3-[5-(2,6-difluorophenyl)-11,11-dimethyl-3,4-diazatricyclo[6.2.1.02,7]undeca-2,4,6-trien-1-yl]-1-piperidyl]-(1H-pyrazol-3-yl)methanone] here?
The IC50 was 0.0067 µM.
